# Values of other authors, collected in patent US20160324856A1, “USE OF SGC STIMULATORS FOR THE TREATMENT OF NEUROMUSCULAR DISORDERS” (IRONWOOD PHARMACEUTICALS, INC., priority 2014, published 2016).
# How the values were obtained:
# [1] = tested on: dystrophin-deficient zebrafish
compound,measurement,setting,value
CCCc1nn(C)c2c(=O)[nH]c(-c3cc(S(=O)(=O)N4CCN(C)CC4)ccc3OCC)nc12 [sildenafil],cardiac dynamics,mdx mouse; mdx mice,improve cardiac dynamics
same,"muscle ischemia, injury and fatigue","mdx mouse; mdx mouse, after a brief bout of exercise","alleviate muscle ischemia, as well as injury and fatigue"
same,dystrophic skeletal muscle and survival,[1],rescue dystrophic skeletal muscle and prolong survival
